Laboratory results reported in US10517889B2, “Modulators of SMAD7 expression” (Ionis Pharmaceuticals, Inc., priority 2017, dated 2019).
Strand notation (5' to 3'): a small letter for the sugar, then the base; units joined by * are phosphorothioate-linked, units joined directly phosphodiester-linked; [ ] holds rarer units or linkages, { } end groups; capitals alone tell only the bases. k = constrained ethyl (cEt); [5mC] = 5-methylcytosine; d = 2'-deoxy (DNA)

System: human SMAD7 mRNA
Assay: Antisense inhibition of human SMAD7 mRNA expression in Hep3B cells by 3-10-3 cEt gapmers, 10,000 nM, electroporation (Example 2)
Format: cell-based
Settings: SMAD7 mRNA, Hep3B cells, 10,000 nM antisense oligonucleotide, electroporation, approximately 24 hours, primer probe set RTS5062, relative to untreated control cells
Outline: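 qRT-PCR (RTS5062) of SMAD7 mRNA, normalised to RIBOGREEN total RNA, gave percent inhibition relative to untreated controls. Hep3B cells at 20,000 per well received 10,000 nM oligonucleotide by electroporation, with ~24 h treatment.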

Substance | % Inhibition [%]
800793 (antisense kT*kG*kA*d[5mC]*dT*d[5mC]*dT*dT*dG*dT*dT*dG*dT*k[5mC]*k[5mC]*kG) [compound 800793] | 53
800795 (antisense kT*kA*kA*d[5mC]*dT*dG*d[5mC]*dT*dG*d[5mC]*dG*dG*dT*kT*kG*kT) [compound 800795] | 12
800798 (antisense k[5mC]*k[5mC]*kT*dG*dG*dA*dG*dT*d[5mC]*d[5mC]*dG*dG*dG*kT*kT*kG) [compound 800798] | 36
800837 (antisense kA*kA*kA*d[5mC]*d[5mC]*dT*dT*dT*dG*dT*dA*dG*dT*kT*kA*kG) [compound 800837] | 41
800843 (antisense kT*k[5mC]*kG*dG*d[5mC]*d[5mC]*dA*d[5mC]*dA*d[5mC]*dA*d[5mC]*d[5mC]*kT*k[5mC]*kA) [compound 800843] | 32
800858 (antisense kA*kG*k[5mC]*d[5mC]*d[5mC]*dA*dA*d[5mC]*dT*dG*dT*dT*dT*kG*kT*k[5mC]) [compound 800858] | 40
800861 (antisense k[5mC]*k[5mC]*kA*dG*dT*dT*dG*dG*dT*dT*dT*dG*dA*kG*kA*kA) [compound 800861] | 32
800883 (antisense kA*k[5mC]*k[5mC]*dA*dT*dT*dT*dA*dT*d[5mC]*dT*dG*dG*kT*kG*kT) [compound 800883] | 50
800998 (antisense k[5mC]*k[5mC]*k[5mC]*dG*d[5mC]*dT*d[5mC]*dT*d[5mC]*dA*dG*d[5mC]*d[5mC]*kA*kG*kG) [compound 800998] | 39
800999 (antisense k[5mC]*kA*kT*dT*d[5mC]*dA*dT*dT*dA*dA*dG*d[5mC]*d[5mC]*k[5mC]*kG*k[5mC]) [compound 800999] | 54
801003 (antisense kG*kA*kA*dT*d[5mC]*dA*dA*dG*d[5mC]*d[5mC]*d[5mC]*dT*dG*kG*k[5mC]*kT) [compound 801003] | 38
801128 (antisense kA*kG*kT*dA*dT*d[5mC]*d[5mC]*dA*dT*d[5mC]*dA*dA*d[5mC]*kT*kG*k[5mC]) [compound 801128] | 48
801132 (antisense kG*kG*kT*dG*dA*d[5mC]*dT*d[5mC]*dA*dT*d[5mC]*dA*dG*kG*k[5mC]*kA) [compound 801132] | 55
801138 (antisense kG*kT*kT*dA*dG*dG*dA*d[5mC]*d[5mC]*dT*dG*dG*dG*kA*kA*k[5mC]) [compound 801138] | 6
801145 (antisense kA*k[5mC]*kG*d[5mC]*dT*dG*dT*dG*dG*dT*dT*dT*dG*kT*kG*kG) [compound 801145] | 0
829715 (antisense kT*k[5mC]*kT*d[5mC]*d[5mC]*d[5mC]*dG*dG*dA*dG*dG*d[5mC]*d[5mC]*kG*kG*kG) [compound 829715] | 40
829716 (antisense kG*kT*k[5mC]*dT*d[5mC]*d[5mC]*d[5mC]*dG*dG*dA*dG*dG*d[5mC]*k[5mC]*kG*kG) [compound 829716] | 10
829717 (antisense kA*kG*kT*d[5mC]*dT*d[5mC]*d[5mC]*d[5mC]*dG*dG*dA*dG*dG*k[5mC]*k[5mC]*kG) [compound 829717] | 28
829718 (antisense k[5mC]*k[5mC]*kA*dG*dT*d[5mC]*dT*d[5mC]*d[5mC]*d[5mC]*dG*dG*dA*kG*kG*k[5mC]) [compound 829718] | 15
829719 (antisense kG*k[5mC]*k[5mC]*dA*dG*dT*d[5mC]*dT*d[5mC]*d[5mC]*d[5mC]*dG*dG*kA*kG*kG) [compound 829719] | 15
829720 (antisense kG*k[5mC]*kG*d[5mC]*d[5mC]*dA*dG*dT*d[5mC]*dT*d[5mC]*d[5mC]*d[5mC]*kG*kG*kA) [compound 829720] | 14
829721 (antisense kT*kG*k[5mC]*dG*d[5mC]*d[5mC]*dA*dG*dT*d[5mC]*dT*d[5mC]*d[5mC]*k[5mC]*kG*kG) [compound 829721] | 33
829722 (antisense kA*kT*kG*d[5mC]*dG*d[5mC]*d[5mC]*dA*dG*dT*d[5mC]*dT*d[5mC]*k[5mC]*k[5mC]*kG) [compound 829722] | 38
829723 (antisense kG*k[5mC]*kA*dT*dG*d[5mC]*dG*d[5mC]*d[5mC]*dA*dG*dT*d[5mC]*kT*k[5mC]*k[5mC]) [compound 829723] | 54
829724 (antisense kG*kG*k[5mC]*dA*dT*dG*d[5mC]*dG*d[5mC]*d[5mC]*dA*dG*dT*k[5mC]*kT*k[5mC]) [compound 829724] | 54
829725 (antisense k[5mC]*k[5mC]*kG*dT*dG*dG*d[5mC]*dA*dT*dG*d[5mC]*dG*d[5mC]*k[5mC]*kA*kG) [compound 829725] | 41

Substance | % Inhibition [%]
829726 (antisense k[5mC]*kT*k[5mC]*d[5mC]*dG*dT*dG*dG*d[5mC]*dA*dT*dG*d[5mC]*kG*k[5mC]*k[5mC]) [compound 829726] | 41
829727 (antisense kG*k[5mC]*kT*d[5mC]*d[5mC]*dG*dT*dG*dG*d[5mC]*dA*dT*dG*k[5mC]*kG*k[5mC]) [compound 829727] | 35
829728 (antisense kG*kG*k[5mC]*dG*d[5mC]*dA*dG*dG*d[5mC]*dG*dA*d[5mC]*dA*kG*k[5mC]*kA) [compound 829728] | 44
829729 (antisense kA*kG*kG*d[5mC]*dG*d[5mC]*dA*dG*dG*d[5mC]*dG*dA*d[5mC]*kA*kG*k[5mC]) [compound 829729] | 66
829730 (antisense kG*k[5mC]*kA*dG*dG*d[5mC]*dG*d[5mC]*dA*dG*dG*d[5mC]*dG*kA*k[5mC]*kA) [compound 829730] | 23
829731 (antisense kA*kG*k[5mC]*dA*dG*dG*d[5mC]*dG*d[5mC]*dA*dG*dG*d[5mC]*kG*kA*k[5mC]) [compound 829731] | 50
829732 (antisense k[5mC]*kA*kT*dG*dA*dA*dG*dA*dA*dG*dT*d[5mC]*dG*kG*kG*k[5mC]) [compound 829732] | 40
829733 (antisense kA*k[5mC]*k[5mC]*dA*dT*dG*dA*dA*dG*dA*dA*dG*dT*k[5mC]*kG*kG) [compound 829733] | 54
829735 (antisense k[5mC]*k[5mC]*kT*d[5mC]*d[5mC]*dG*d[5mC]*dA*d[5mC]*dA*d[5mC]*d[5mC]*dA*kT*kG*kA) [compound 829735] | 61
829736 (antisense kG*kG*kA*dG*d[5mC]*dG*dA*dA*d[5mC]*dA*dT*dG*dA*k[5mC]*k[5mC]*kT) [compound 829736] | 41
829737 (antisense kA*kG*kG*dA*dG*d[5mC]*dG*dA*dA*d[5mC]*dA*dT*dG*kA*k[5mC]*k[5mC]) [compound 829737] | 52
829738 (antisense kT*kA*kA*dG*dG*dA*dG*d[5mC]*dG*dA*dA*d[5mC]*dA*kT*kG*kA) [compound 829738] | 49
829739 (antisense kT*kG*k[5mC]*dT*dA*dA*dG*dG*dA*dG*d[5mC]*dG*dA*kA*k[5mC]*kA) [compound 829739] | 44
829740 (antisense k[5mC]*kT*kG*d[5mC]*dT*dA*dA*dG*dG*dA*dG*d[5mC]*dG*kA*kA*k[5mC]) [compound 829740] | 52
829741 (antisense k[5mC]*k[5mC]*kG*dG*dA*d[5mC]*dG*dA*dG*d[5mC]*dG*d[5mC]*dA*kG*kA*kT) [compound 829741] | 32
829742 (antisense k[5mC]*kG*k[5mC]*d[5mC]*dG*dG*dA*d[5mC]*dG*dA*dG*d[5mC]*dG*k[5mC]*kA*kG) [compound 829742] | 43
829743 (antisense kA*k[5mC]*kG*d[5mC]*d[5mC]*dG*dG*dA*d[5mC]*dG*dA*dG*d[5mC]*kG*k[5mC]*kA) [compound 829743] | 25
829744 (antisense kA*k[5mC]*kG*dG*d[5mC]*dT*d[5mC]*d[5mC]*dT*d[5mC]*d[5mC]*dA*dG*kA*kG*kA) [compound 829744] | 39
829745 (antisense k[5mC]*kG*kG*dG*d[5mC]*dG*d[5mC]*dA*d[5mC]*dG*dG*d[5mC]*dT*k[5mC]*k[5mC]*kT) [compound 829745] | 19
829746 (antisense k[5mC]*k[5mC]*kG*dG*dG*d[5mC]*dG*d[5mC]*dA*d[5mC]*dG*dG*d[5mC]*kT*k[5mC]*k[5mC]) [compound 829746] | 46
829747 (antisense kT*k[5mC]*kG*d[5mC]*d[5mC]*dG*d[5mC]*d[5mC]*dG*dG*dG*d[5mC]*dG*k[5mC]*kA*k[5mC]) [compound 829747] | 16
829748 (antisense k[5mC]*kT*k[5mC]*dG*d[5mC]*d[5mC]*dG*d[5mC]*d[5mC]*dG*dG*dG*d[5mC]*kG*k[5mC]*kA) [compound 829748] | 43
829749 (antisense kT*k[5mC]*k[5mC]*dT*d[5mC]*dG*d[5mC]*d[5mC]*dG*d[5mC]*d[5mC]*dG*dG*kG*k[5mC]*kG) [compound 829749] | 26
829750 (antisense k[5mC]*kG*kT*d[5mC]*d[5mC]*dT*d[5mC]*dG*d[5mC]*d[5mC]*dG*d[5mC]*d[5mC]*kG*kG*kG) [compound 829750] | 33
829751 (antisense kG*k[5mC]*kA*dG*d[5mC]*dT*d[5mC]*dG*d[5mC]*d[5mC]*dT*d[5mC]*d[5mC]*kT*k[5mC]*k[5mC]) [compound 829751] | 40
829752 (antisense k[5mC]*k[5mC]*kG*d[5mC]*dA*dG*d[5mC]*dT*d[5mC]*dG*d[5mC]*d[5mC]*dT*k[5mC]*k[5mC]*kT) [compound 829752] | 27
